Measurements published in US5837548A, “Treatment of inflammation by inhibition of lipid body formation” (Beth Israel Hospital, priority 1995, dated 1998).
Where a name gives a salt, the structure may show the parent alone. Read-outs that look alike come from different tables or passages of the source.

Assays:
[1] = tested on: human neutrophils; settings: cited from earlier work
[2] = tested on: human eosinophils; settings: receptor-mediated; cited from earlier work
[3] = tested on: human neutrophils; test: cis-unsaturated fatty acid-induced lipid body formation in human neutrophils (osmium staining, light microscopy enumeration); type: cell-based; settings: for inhibition at 1 µM / inhibition at 10 µM / inhibition at 5 µM / inhibition at 0.5 µM / inhibition at 1 µg/mL / inhibition at 10 µg/mL: Homo sapiens, Neutrophil, basal subtracted; for inhibition at 1 µM / inhibition at 10 µM: read-out: % inhibition; for inhibition of arachidonic acid-induced lipid body formation / inhibition of oleic acid-induced lipid body formation: human neutrophils, staurosporine 0.1-1.0 μM, aspirin 10 μg/mL, others as in Tables 1 and 2; for inhibition at 1 µg/mL / inhibition at 10 µg/mL: 1 h
Protocol: Neutrophils were purified from fresh human blood obtained by venipuncture from healthy adult volunteers and collected into acidified citrate. After addition of 6% dextran 70 (McGaw, Irvine, Calif.), RBCs were allowed to sediment for 1 hour at room temperature. The leukocyte-rich supernatant was overlaid onto an equal volume of Ficoll-Paque gradient (Piscataway, N.J.), and centrifuged at 400×g for 20 min. […] Residual RBCs were lysed with hypotonic saline.
Human leukocytes (10^6 cells/mL) were incubated with varying concentrations of arachidonic acid (AA), oleic acid (OA) or vehicle at 37° C. in a 5% CO2 /95% O2 atmosphere, and after 1 hour leukocytes (10^5 cells per slide) were cytocentrifuged (550 rpm, 5 min) onto glass slides. During inhibitory studies, neutrophils were pretreated for 1 hour with varying concentrations of enzyme inhibitors, protein synthesis inhibitors, or vehicle as indicated. When PKC inhibitors were used, the pre-incubation time was reduced to 30 minutes to avoid toxic effects to the cells. […] Stock solutions for A23187, D609, U-73122, and indomethacin were prepared in DMSO and stored at -20° C. Aliquots were diluted in Ca^++ /Mg^++ fee HBSS to the indicated concentration immediately prior to use. […] The morphology of fixed cells was observed, and lipid bodies were enumerated with phase contrast microscopy and a 100× objective lens in 50 consecutively scanned leukocytes.
Results were expressed as mean±SEM and were analyzed statistically by means of the analysis of variance followed by the Newman-Keuls-Student test with the level of significance set at p<0.05. Correlation coefficients were determined by linear regression, and correlation analysis was performed by Fisher's r to z transformation with the level of significance set at p<0.05.
^1 Neutrophils (10^6 /ml) were pretreated with protein kinase C
(actinomycin D, cycloheximide) for 30 min or with phospholipase C
inhibitors (D609, U73122) for 1 h. The cells were then stimulated with
vehicle, arachidonic acid (15 μM), or oleic acid (10 μM), for 1 h.
Results are mean ± SEM from fifty consecutively counted neutrophils.
Statistically significant differences between the agonist alone and the
inhibitor are represented by an asterisk(*). Percent inhibition has been
calculated after subtracting out the basal number of lipid bodies/PMN
present prior to stimulation.
^1 Neutrophils (10^6 /ml) were pretreated with the NSAID or
vehicle for 1 h then stimulated with vehicle, arachidonic acid, or oleic
± SEM from fifty consecutively counted neutrophils. Statistically
significant differences between the agonist alone and the NSAID are
represented by an asterisk (*). Percent inhibition has been calculated
after subtracting out the basal number of lipid bodies/PMN present prior

[4] = tested on: peritoneal macrophages from wild type mice; test: lipid body formation in peritoneal macrophages from wild type mice; type: cell-based, mouse; settings: for % inhibition / lipid bodies (mean ± SEM)/macrophage: wild type, AA 15 μM; for inhibition of lipid body formation in macrophages: wild-type mice, 10 μg/mL
Protocol: (§1) FIG. 4 is a graph illustrating the effects of arachidonic acid and oleic acid on lipid body formation in peritoneal macrophages from wild type (+/+) and cyclooxygenase-1 knockout (-/-) mice. The agonists AA and OA are represented by the square and circle symbols, respectively. The closed symbols represent the wild type mice; the open symbols represent the cyclooxygenase-1 knockout mice. Macrophages (10^6 /mL) were incubated with the agonists AA and OA at varying concentrations for an hour. Lipid bodies were enumerated using light microscopy following osmium staining. Each point represents the mean±SEM from fifty consecutively scanned macrophages.
(§2) Cyclooxygenase-1 and cyclooxygenase-2 knockout mice were generated as recently described (Morham et al., Cell 83:473-482 (1995); Langenbach et al., Cell 83:483-492 (1995)). All experiments were carried out with male 8-12 week old mice. Macrophages from cyclooxygenase genetically deficient mice and wild-type litter mates were obtained by lavaging the peritoneal cavity with 5 mL of cold RPMI containing heparin (20 IU/mL).
(§3) ^1 Peritoneal macrophages from wild type and COX 1 knockout mice were
(§4) pretreated with the NSAID or vehicle for 1h and then stimulated with
(§5) arachidonic acid (AA, 15 μM) or vehicle for 1h. Results are mean ±
(§6) SEM from fifty consecutively counted macrophages. The statistically

[5] = tested on: neutrophils (arachidonic acid uptake); test: 14C-arachidonic acid uptake in arachidonic acid-stimulated neutrophils; type: cell-based, human; settings: for inhibition of 14C-arachidonic acid uptake: arachidonic acid-stimulated cells, aspirin 10 μg/mL, sodium salicylate 10 μg/mL, indomethacin 1 μg/mL; for 14C-AA uptake: stimulus arachidonate 15 μM, drug 1 μg/ml (table footnote)
Protocol: Neutrophils (10^6 /mL) were labeled with ^14 C-arachidonic acid (0.01 μCi/sample) together with either vehicle, aspirin (10 μg/mL), indomethacin (1 μg/mL) or sodium salicylate (10 μg/mL) for 1 hour. After the incubation period, lipid body formation was elicited by arachidonic acid (15 μM). The cells were washed 3 times in Ca^++ /Mg^++ free HBSS and analysis of incorporated ^14 C-arachidonic acid in the cell pellet was performed by liquid scintillation counting.
^1 The cells were pretreated with ^14 Carachidonic acid (0.01
μCi/sample) plus vehicle, aspirin (10 μg/ml) , sodium salicylate (1
μg/ml) or indomethacin (1 μg/ml) 1 h before the incubation with
arachidonic acid (15 μM). Cells were washed 3 times before the analysi
of incorporated ^14 Carachidonic acid. Results are representative of
independent experiments.

[6] = tested on: peritoneal macrophages from COX 1 knockout mice; test: lipid body formation in peritoneal macrophages from cyclooxygenase-1 knockout mice; type: cell-based, mouse; settings: for % inhibition / lipid bodies (mean ± SEM)/macrophage: COX 1 knockout, AA 15 μM; for inhibition of lipid body formation in macrophages: cyclooxygenase-1-deficient mice, 10 μg/mL
Protocol: as §1, §2, §3, §4, §5, §6

[7] = arachidonic acid 15 μM, inhibitor 1 μM
[8] = arachidonic acid 15 μM, inhibitor 10 μM
[9] = oleic acid 10 μM, inhibitor 1 μM
[10] = oleic acid 10 μM, inhibitor 10 μM
[11] = oleic acid 10 μM, NSAID 10 μg/ml, 1 h pretreatment
[12] = arachidonic acid 15 μM, NSAID 10 μg/ml, 1 h pretreatment
[13] = arachidonic acid 15 μM, inhibitor 5 μM
[14] = oleic acid 10 μM, inhibitor 5 μM
[15] = arachidonic acid 15 μM, inhibitor 0.5 μM
[16] = oleic acid 10 μM, inhibitor 0.5 μM
[17] = arachidonic acid 15 μM, NSAID 1 μg/ml, 1 h pretreatment
[18] = oleic acid 10 μM, NSAID 1 μg/ml, 1 h pretreatment

In the case of `CCCCCCCC/C=C\CCCCCCCC(=O)OCC(CO)OC(C)=O` (racemic), the “induction of lipid body formation” value [1] is given as “induce lipid body formation”.
In the case of `CCCCCC=CCC=CCC=CC=CC(O)CCCC(=O)O` (stereo not drawn) [5-HETE, 5-hydroxy-6,8,11,14-eicosatetraenoic acid], the “induction of lipid body formation” value [2] is given as “elicit lipid body formation” and the “induction of lipid body formation” value [1] is given as “elicit lipid body formation”.
In the case of `CCCCC/C=C\C[C@H](O)/C=C/C=C\C/C=C\CCCC(=O)O` [12-HETE], the “induction of lipid body formation” value [2] is given as “elicit lipid body formation” and the “induction of lipid body formation” value [1] is given as “elicit lipid body formation”.
In the case of `CCCCC[C@H](O)/C=C/C=C\C/C=C\C/C=C\CCCC(=O)O` [15-HETE], the “induction of lipid body formation” value [2] is listed as “elicit lipid body formation” and the “induction of lipid body formation” value [1] is listed as “elicit lipid body formation”.
In the case of `S=C(S)OC1CC2CC1C1CCCC21` (stereo not drawn) [D609], the inhibition at 1 µM [3, 7] is reported as 48%, the inhibition at 10 µM [3, 8] is reported as 84% and the inhibition at 1 µM [3, 9] is reported as 19%. The inhibition at 10 µM [3, 10] was 46%, the “lipid bodies (mean ± SEM)/cell” value [3, 7] was 6.5 ± 0.2 lipid bodies/cell and the “lipid bodies (mean ± SEM)/cell” value [3, 8] was 5.2 ± 0.2 lipid bodies/cell. The “lipid bodies (mean ± SEM)/cell” value [3, 9] was 9.4 ± 0.3 lipid bodies/cell and the “lipid bodies (mean ± SEM)/cell” value [3, 10] was 7.8 ± 0.2 lipid bodies/cell.
With `O=C(O)c1ccccc1O` [Na salicylate, salicylic acid (sodium salt)] the “% inhibition” value ([4]; NSAID 10 μg/ml) was 45%, the “lipid bodies (mean ± SEM)/macrophage” value ([4]; NSAID 10 μg/ml) was 5.0 ± 0.3 lipid bodies/macrophage and the “inhibition of lipid body formation in macrophages” value (“inhibition of lipid body formation” below) [4] was “significantly inhibited”. The inhibition at 10 µM [3, 11] was 53%, the “lipid bodies (mean ± SEM) PMN” value [3, 12] was 7.9 ± 0.4 lipid bodies/PMN and the “inhibition of arachidonic acid-induced lipid body formation” value [3] was “significantly inhibited”. The “inhibition of oleic acid-induced lipid body formation” value [3] was “significantly inhibited”, the “lipid bodies (mean ± SEM) PMN” value [3, 11] was 10.1 ± 0.4 lipid bodies/PMN and the “inhibition of 14C-arachidonic acid uptake” value [5] was “failed to inhibit”. The 14C-AA uptake [5] was 7292 cpm, the “% inhibition” value ([6]; NSAID 10 μg/ml) was 66% and the “lipid bodies (mean ± SEM)/macrophage” value ([6]; NSAID 10 μg/ml) was 4.0 ± 0.4 lipid bodies/macrophage. For the same compound, the “inhibition of lipid body formation” value [6] was “significantly inhibited”.
`COc1ccc2c(c1)CC[C@@H]1[C@@H]2CC[C@]2(C)[C@@H](NCCCCCCN3C(=O)C=CC3=O)CC[C@@H]12` [U-73122] gave an inhibition at 1 µM [3, 7] of 45%, an inhibition at 5 µM [3, 13] of 85% and an inhibition at 1 µM [3, 9] of 8%. For the same compound, the inhibition at 5 µM [3, 14] was 24%, the “lipid bodies (mean ± SEM)/cell” value [3, 7] was 6.6 ± 0.2 lipid bodies/cell and the “lipid bodies (mean ± SEM)/cell” value [3, 13] was 4.9 ± 0.2 lipid bodies/cell. The “lipid bodies (mean ± SEM)/cell” value [3, 9] was 19.3 ± 0.4 lipid bodies/cell and the “lipid bodies (mean ± SEM)/cell” value [3, 14] was 16.9 ± 0.4 lipid bodies/cell.
With `COc1ccc2c(c[n+](C)c3c4cc5c(cc4ccc23)OCO5)c1OC` [chelerythrine] the inhibition at 0.5 µM [3, 15] was 50%, the inhibition at 1 µM [3, 7] was 90% and the inhibition at 0.5 µM [3, 16] was 25%. The inhibition at 1 µM [3, 9] was 71%, the “lipid bodies (mean ± SEM)/cell” value [3, 15] was 7.5 ± 0.3 lipid bodies/cell and the “lipid bodies (mean ± SEM)/cell” value [3, 7] was 5.1 ± 0.3 lipid bodies/cell. The “lipid bodies (mean ± SEM)/cell” value [3, 16] was 7.5 ± 0.2 lipid bodies/cell and the “lipid bodies (mean ± SEM)/cell” value [3, 9] was 5.8 ± 0.3 lipid bodies/cell.
With `COc1ccc2c(c1)c(CC(=O)O)c(C)n2C(=O)c1ccc(Cl)cc1` [indomethacin] the “% inhibition” value ([4]; NSAID 1 μg/ml) was 61%, the “lipid bodies (mean ± SEM)/macrophage” value ([4]; NSAID 1 μg/ml) was 4.4 ± 0.3 lipid bodies/macrophage and the “inhibition of lipid body formation” value [4] was “significantly inhibited”. The inhibition at 1 µg/mL [3, 17] was 63%, the inhibition at 1 µg/mL [3, 18] was 61% and the “lipid bodies (mean ± SEM) PMN” value [3, 17] was 7.0 ± 0.5 lipid bodies/PMN. The “inhibition of arachidonic acid-induced lipid body formation” value [3] was “significantly inhibited”, the “inhibition of oleic acid-induced lipid body formation” value [3] was “significantly inhibited” and the “lipid bodies (mean ± SEM) PMN” value [3, 18] was 9.1 ± 0.5 lipid bodies/PMN. The “inhibition of 14C-arachidonic acid uptake” value [5] was “failed to inhibit”, the 14C-AA uptake [5] was 7095 cpm and the “% inhibition” value ([6]; NSAID 1 μg/ml) was 48%. For the same compound, the “lipid bodies (mean ± SEM)/macrophage” value ([6]; NSAID 1 μg/ml) was 4.8 ± 0.4 lipid bodies/macrophage and the “inhibition of lipid body formation” value [6] was “significantly inhibited”.
For `CCCCCCCCCCCCCC(=O)O[C@@H]1[C@@H](C)[C@@]2(O)[C@@H](C=C(CO)C[C@]3(O)C(=O)C(C)=C[C@@H]23)[C@@H]2C(C)(C)[C@]12OC(C)=O` [phorbol-12-myristate-13-acetate], the “induction of lipid body formation” value [1] is given as “induce lipid body formation”.
For `CN1C(C(=O)Nc2ccccn2)=C(O)c2ccccc2S1(=O)=O` [piroxicam], the inhibition at 10 µg/mL [3, 12] was 61%, the inhibition at 10 µg/mL [3, 11] was 50% and the “lipid bodies (mean ± SEM) PMN” value [3, 12] was 7.2 ± 0.4 lipid bodies/PMN. The “inhibition of arachidonic acid-induced lipid body formation” value [3] was “significantly inhibited”, the “inhibition of oleic acid-induced lipid body formation” value [3] was “significantly inhibited” and the “lipid bodies (mean ± SEM) PMN” value [3, 11] was 10.4 ± 0.4 lipid bodies/PMN.
In the case of `CCCCCCCCCCCCCCCCOCC(COP(=O)([O-])OCC[N+](C)(C)C)OC(C)=O` (stereo not drawn) [platelet activating factor], the “induction of lipid body formation” value [2] is given as “elicit lipid body formation”, the “induction of lipid body formation” value [1] is given as “Lipid body formation is also induced” and the “induction of lipid body formation” value ([1]; listed as PAF) is given as “elicit lipid body formation”.
In the case of `CN[C@@H]1C[C@H]2O[C@@](C)([C@@H]1OC)n1c3ccccc3c3c4c(c5c6ccccc6n2c5c31)C(=O)NC4` [staurosporine], the “lipid bodies (mean ± SEM)/cell” value ([3]; arachidonic acid 15 μM, inhibitor 0.1 μM) is reported as 6.1 ± 0.3 lipid bodies/cell, the “lipid bodies (mean ± SEM)/cell” value [3, 7] is reported as 5.1 ± 0.2 lipid bodies/cell and the “lipid bodies (mean ± SEM)/cell” value ([3]; oleic acid 10 μM, inhibitor 0.1 μM) is reported as 8.3 ± 0.3 lipid bodies/cell. The “lipid bodies (mean ± SEM)/cell” value [3, 9] was 7.7 ± 0.3 lipid bodies/cell.
